According to PMC10025090 (iScience, 2023):

Columns and labels:
H2-Kd [1] = biological target: T1, H2-Kd (Mus musculus, UniProt P01902); assay: In vitro pMHC binding assay; conditions: refolding with 10 μM peptide, 4°C, 72 hours; ELISA; result in words
H2-Kd [2] = biological target: T1, H2-Kd; conditions: result in words; cited from earlier work

T1 sequence (P01902 22-296 limits assumed): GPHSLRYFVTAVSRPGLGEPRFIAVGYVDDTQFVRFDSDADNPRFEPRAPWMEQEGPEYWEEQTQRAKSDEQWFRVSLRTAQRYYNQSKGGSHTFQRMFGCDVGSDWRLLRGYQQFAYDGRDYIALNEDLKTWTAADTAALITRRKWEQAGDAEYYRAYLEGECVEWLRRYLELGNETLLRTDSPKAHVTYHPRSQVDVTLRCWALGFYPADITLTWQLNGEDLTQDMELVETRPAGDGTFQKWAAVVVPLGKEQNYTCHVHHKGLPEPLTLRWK
T1 sequence (P61769 21-119 partner): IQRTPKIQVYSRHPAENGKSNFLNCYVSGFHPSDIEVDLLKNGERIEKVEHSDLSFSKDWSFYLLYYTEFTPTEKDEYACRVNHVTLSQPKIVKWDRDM

Sequence: YIRPFETKVK
- In vitro binding affinity to H2-Kd (H2-Kd [1]): significantly high
- In silico-predicted MHC binding (H2-Kd [2]): poor in silico-predicted MHC binder
